Data: article PMC11558128 (Advanced Science, 2024)
Positions of bridges follow the written chain, without caps; N, C: chain ends. Residues, ends and D or L forms follow the SMILES beside them.

The compounds below were run against T1, rKv4.2 (Rattus norvegicus, UniProt Q63881) (assay: cell-based). Conditions: analogue compared with its parent toxin.
T1 construct: expressed in transfected cells; host or cells: HEK293T
T1 sequence (Q63881 1-630): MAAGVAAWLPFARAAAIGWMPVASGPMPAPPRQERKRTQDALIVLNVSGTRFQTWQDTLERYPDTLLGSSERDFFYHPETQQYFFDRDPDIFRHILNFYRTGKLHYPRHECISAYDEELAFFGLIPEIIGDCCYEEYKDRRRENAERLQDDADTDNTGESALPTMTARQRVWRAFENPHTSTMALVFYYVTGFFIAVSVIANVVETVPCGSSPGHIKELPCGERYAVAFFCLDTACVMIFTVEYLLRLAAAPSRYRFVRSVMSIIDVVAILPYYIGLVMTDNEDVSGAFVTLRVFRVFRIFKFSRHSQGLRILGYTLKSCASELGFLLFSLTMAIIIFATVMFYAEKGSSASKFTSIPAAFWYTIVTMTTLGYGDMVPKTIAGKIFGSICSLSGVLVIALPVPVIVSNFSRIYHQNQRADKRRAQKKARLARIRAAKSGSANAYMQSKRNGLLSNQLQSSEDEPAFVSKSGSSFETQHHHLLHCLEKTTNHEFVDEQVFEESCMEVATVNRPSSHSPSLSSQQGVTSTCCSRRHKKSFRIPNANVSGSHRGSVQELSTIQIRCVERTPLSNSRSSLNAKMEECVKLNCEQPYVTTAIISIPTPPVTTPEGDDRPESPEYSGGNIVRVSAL

Compound	inhibition of rKv4.2, in words
CC(C)C[C@@H]1NC(=O)[C@H](Cc2ccc(O)cc2)NC(=O)[C@H](CC(N)=O)NC(=O)[C@H](CCCCN)NC(=O)[C@@H]2CSSC[C@H](NC(=O)CNC(=O)[C@@H](N)CCCCN)C(=O)N[C@@H](CCCCN)C(=O)NCC(=O)N[C@@H](Cc3ccccc3)C(=O)NCC(=O)N[C@@H](CC(=O)O)C(=O)N[C@@H](CO)C(=O)N[C@H]3CSSC[C@H](NC1=O)C(=O)N[C@@H](CO)C(=O)N[C@@H](CO)C(=O)N[C@@H](C)C(=O)N[C@@H](Cc1c[nH]cn1)C(=O)N[C@@H](CCCCN)C(=O)N[C@@H](Cc1c[nH]c4ccccc14)C(=O)N[C@H](C(=O)N[C@@H](CCCCN)C(=O)N[C@H](C(=O)N[C@@H](Cc1ccc(O)cc1)C(=O)N[C@@H](CC(C)C)C(=O)N[C@H](C(N)=O)C(C)C)C(C)C)CSSC[C@H](NC(=O)[C@H](CCC(=O)O)NC(=O)[C@H](CC(N)=O)NC(=O)[C@H](CCCCN)NC(=O)CNC(=O)[C@@H]1CCCN1C(=O)[C@H]([C@@H](C)O)NC3=O)C(=O)N2 [HNTX-III-H4-K25A] (H-KGCKGFGDSCTPGKNECCKNYLCSSAHKWCKVYLV-NH2; disulfide 3-18, 10-23, 17-30; N-terminus and C-terminus assumed)	disappeared

Same assay, conditions: whole-cell patch clamp, HEK293T; mean ± SEM, n = 3-8; SEM; read-out: IC50 on rKv4.2 WT

Compound	IC50
CC(C)C[C@H](NC(=O)[C@H](Cc1ccc(O)cc1)NC(=O)[C@@H](NC(=O)[C@H](CCCCN)NC(=O)[C@@H]1CSSC[C@@H]2NC(=O)[C@H](CCC(=O)O)NC(=O)[C@H](CC(N)=O)NC(=O)[C@H](CCCCN)NC(=O)CNC(=O)[C@@H]3CCCN3C(=O)[C@H]([C@@H](C)O)NC(=O)[C@@H]3CSSC[C@H](NC(=O)[C@H](CC(C)C)NC(=O)[C@H](Cc4ccc(O)cc4)NC(=O)[C@H](CC(N)=O)NC(=O)[C@@H]4CCCN4C(=O)[C@H](CSSC[C@H](NC(=O)CN)C(=O)N[C@@H](CCCCN)C(=O)NCC(=O)N[C@@H](Cc4ccccc4)C(=O)NCC(=O)N[C@@H](CC(=O)O)C(=O)N[C@@H](CO)C(=O)N3)NC2=O)C(=O)N[C@@H](CO)C(=O)N[C@@H](CO)C(=O)N[C@@H](CCCCN)C(=O)N[C@@H](Cc2c[nH]cn2)C(=O)N[C@@H](CCCCN)C(=O)N[C@@H](Cc2c[nH]c3ccccc23)C(=O)N1)C(C)C)C(N)=O [A21L] (H-GCKGFGDSCTPGKNECCPNYLCSSKHKWCKVYL-NH2; disulfide 2-17, 9-22, 16-29)	0.06 ± 0.01 µM
CC(C)C[C@H](NC(=O)[C@H](Cc1ccc(O)cc1)NC(=O)[C@@H](NC(=O)[C@H](CCCCN)NC(=O)[C@@H]1CSSC[C@@H]2NC(=O)[C@H](CCC(=O)O)NC(=O)[C@H](CC(N)=O)NC(=O)[C@H](CCCCN)NC(=O)CNC(=O)[C@@H]3CCCN3C(=O)[C@H]([C@@H](C)O)NC(=O)[C@@H]3CSSC[C@H](NC(=O)[C@H](C(C)C)NC(=O)[C@H](Cc4ccc(O)cc4)NC(=O)[C@H](CC(N)=O)NC(=O)[C@@H]4CCCN4C(=O)[C@H](CSSC[C@H](NC(=O)CN)C(=O)N[C@@H](CCCCN)C(=O)NCC(=O)N[C@@H](Cc4ccccc4)C(=O)NCC(=O)N[C@@H](CC(=O)O)C(=O)N[C@@H](CO)C(=O)N3)NC2=O)C(=O)N[C@@H](CO)C(=O)N[C@@H](CO)C(=O)N[C@@H](CCCCN)C(=O)N[C@@H](Cc2c[nH]cn2)C(=O)N[C@@H](CCCCN)C(=O)N[C@@H](Cc2c[nH]c3ccccc23)C(=O)N1)C(C)C)C(N)=O [A21V] (H-GCKGFGDSCTPGKNECCPNYVCSSKHKWCKVYL-NH2; disulfide 2-17, 9-22, 16-29)	1 ± 0.144 µM
CC(C)C[C@H](NC(=O)[C@H](Cc1ccc(O)cc1)NC(=O)[C@@H](NC(=O)[C@H](CCCCN)NC(=O)[C@@H]1CSSC[C@@H]2NC(=O)[C@H](CCC(=O)O)NC(=O)[C@H](CC(N)=O)NC(=O)[C@H](CCCCN)NC(=O)CNC(=O)[C@@H]3CCCN3C(=O)[C@H]([C@@H](C)O)NC(=O)[C@@H]3CSSC[C@H](NC(=O)[C@H](C)NC(=O)[C@H](Cc4ccc(O)cc4)NC(=O)[C@H](CC(N)=O)NC(=O)[C@@H]4CCCN4C(=O)[C@H](CSSC[C@H](NC(=O)CN)C(=O)N[C@@H](CCCCN)C(=O)NCC(=O)N[C@@H](CC(C)C)C(=O)NCC(=O)N[C@@H](CC(=O)O)C(=O)N[C@@H](CO)C(=O)N3)NC2=O)C(=O)N[C@@H](CO)C(=O)N[C@@H](CO)C(=O)N[C@@H](CCCCN)C(=O)N[C@@H](Cc2c[nH]cn2)C(=O)N[C@@H](CCCCN)C(=O)N[C@@H](Cc2c[nH]c3ccccc23)C(=O)N1)C(C)C)C(N)=O [F5L] (H-GCKGLGDSCTPGKNECCPNYACSSKHKWCKVYL-NH2; disulfide 2-17, 9-22, 16-29)	10 ± 4 µM
CC(C)C[C@H](NC(=O)[C@H](Cc1ccc(O)cc1)NC(=O)[C@@H](NC(=O)[C@H](CCCCN)NC(=O)[C@@H]1CSSC[C@@H]2NC(=O)[C@H](CCC(=O)O)NC(=O)[C@H](CC(N)=O)NC(=O)[C@H](CCCCN)NC(=O)CNC(=O)[C@@H]3CCCN3C(=O)[C@H]([C@@H](C)O)NC(=O)[C@@H]3CSSC[C@H](NC(=O)[C@H](C)NC(=O)[C@H](Cc4ccc(O)cc4)NC(=O)[C@H](CC(N)=O)NC(=O)[C@@H]4CCCN4C(=O)[C@H](CSSC[C@H](NC(=O)CN)C(=O)N[C@@H](CCCCN)C(=O)NCC(=O)N[C@@H](Cc4c[nH]c5ccccc45)C(=O)NCC(=O)N[C@@H](CC(=O)O)C(=O)N[C@@H](CO)C(=O)N3)NC2=O)C(=O)N[C@@H](CO)C(=O)N[C@@H](CO)C(=O)N[C@@H](CCCCN)C(=O)N[C@@H](Cc2c[nH]cn2)C(=O)N[C@@H](CCCCN)C(=O)N[C@@H](Cc2c[nH]c3ccccc23)C(=O)N1)C(C)C)C(N)=O [F5W] (H-GCKGWGDSCTPGKNECCPNYACSSKHKWCKVYL-NH2; disulfide 2-17, 9-22, 16-29)	0.833 ± 0.081 µM
CC(C)C[C@H](NC(=O)[C@H](Cc1ccc(O)cc1)NC(=O)[C@@H](NC(=O)[C@H](CCCCN)NC(=O)[C@@H]1CSSC[C@@H]2NC(=O)[C@H](CCC(=O)O)NC(=O)[C@H](CC(N)=O)NC(=O)[C@H](CCCCN)NC(=O)CNC(=O)[C@@H]3CCCN3C(=O)[C@H]([C@@H](C)O)NC(=O)[C@@H]3CSSC[C@H](NC(=O)[C@H](C)NC(=O)[C@H](Cc4ccc(O)cc4)NC(=O)[C@H](CC(N)=O)NC(=O)[C@@H]4CCCN4C(=O)[C@H](CSSC[C@H](NC(=O)[C@@H](N)Cc4ccccc4)C(=O)N[C@@H](CCCCN)C(=O)NCC(=O)N[C@@H](Cc4ccccc4)C(=O)NCC(=O)N[C@@H](CC(=O)O)C(=O)N[C@@H](CO)C(=O)N3)NC2=O)C(=O)N[C@@H](CO)C(=O)N[C@@H](CO)C(=O)N[C@@H](CCCCN)C(=O)N[C@@H](Cc2c[nH]cn2)C(=O)N[C@@H](CCCCN)C(=O)N[C@@H](Cc2c[nH]c3ccccc23)C(=O)N1)C(C)C)C(N)=O [G1F] (H-FCKGFGDSCTPGKNECCPNYACSSKHKWCKVYL-NH2; disulfide 2-17, 9-22, 16-29)	0.176 ± 0.047 µM
CC(C)C[C@H](NC(=O)[C@H](Cc1ccc(O)cc1)NC(=O)[C@@H](NC(=O)[C@H](CCCCN)NC(=O)[C@@H]1CSSC[C@@H]2NC(=O)[C@H](CCC(=O)O)NC(=O)[C@H](CC(N)=O)NC(=O)[C@H](CCCCN)NC(=O)[C@H](CCC(=O)O)NC(=O)[C@@H]3CCCN3C(=O)[C@H]([C@@H](C)O)NC(=O)[C@@H]3CSSC[C@H](NC(=O)[C@H](C)NC(=O)[C@H](Cc4ccc(O)cc4)NC(=O)[C@H](CC(N)=O)NC(=O)[C@@H]4CCCN4C(=O)[C@H](CSSC[C@H](NC(=O)CN)C(=O)N[C@@H](CCCCN)C(=O)NCC(=O)N[C@@H](Cc4ccccc4)C(=O)NCC(=O)N[C@@H](CC(=O)O)C(=O)N[C@@H](CO)C(=O)N3)NC2=O)C(=O)N[C@@H](CO)C(=O)N[C@@H](CO)C(=O)N[C@@H](CCCCN)C(=O)N[C@@H](Cc2c[nH]cn2)C(=O)N[C@@H](CCCCN)C(=O)N[C@@H](Cc2c[nH]c3ccccc23)C(=O)N1)C(C)C)C(N)=O [G12E] (H-GCKGFGDSCTPEKNECCPNYACSSKHKWCKVYL-NH2; disulfide 2-17, 9-22, 16-29)	0.359 ± 0.082 µM
CC(C)C[C@H](NC(=O)[C@H](Cc1ccc(O)cc1)NC(=O)[C@@H](NC(=O)[C@H](CCCCN)NC(=O)[C@@H]1CSSC[C@@H]2NC(=O)[C@H](CCC(=O)O)NC(=O)[C@H](CC(N)=O)NC(=O)[C@H](CCCCN)NC(=O)CNC(=O)[C@@H]3CCCN3C(=O)[C@H]([C@@H](C)O)NC(=O)[C@@H]3CSSC[C@H](NC(=O)[C@H](C)NC(=O)[C@H](Cc4ccc(O)cc4)NC(=O)[C@H](CCCCN)NC(=O)[C@@H]4CCCN4C(=O)[C@H](CSSC[C@H](NC(=O)CN)C(=O)N[C@@H](CCCCN)C(=O)NCC(=O)N[C@@H](Cc4ccccc4)C(=O)NCC(=O)N[C@@H](CC(=O)O)C(=O)N[C@@H](CO)C(=O)N3)NC2=O)C(=O)N[C@@H](CO)C(=O)N[C@@H](CO)C(=O)N[C@@H](CCCCN)C(=O)N[C@@H](Cc2c[nH]cn2)C(=O)N[C@@H](CCCCN)C(=O)N[C@@H](Cc2c[nH]c3ccccc23)C(=O)N1)C(C)C)C(N)=O [N19K] (H-GCKGFGDSCTPGKNECCPKYACSSKHKWCKVYL-NH2; disulfide 2-17, 9-22, 16-29)	0.475 ± 0.103 µM
